Experimental findings from ChEMBL document CHEMBL1131392, “3-Pyridyloxypropanolamine agonists of the beta 3 adrenergic receptor with improved pharmacokinetic properties” (Bioorg Med Chem Lett, 1998) are described below.

Data set [1] is described as follows: Oral bioavailability in dog. The data set is classed as ADME, organism-based, Canis lupus familiaris. To be noted: in vivo.
Data set [2] is described as follows: Plasma clearance upon intravenous administration of 1 mg/Kg in rats. The data set is classed as ADME, organism-based. To be noted: rat.
The nature of data set [3]: Compound was evaluated for half life (t1/2) upon intravenous administration of 1 mg/Kg in rats. To be noted: rat, in vivo. Format: ADME, organism-based.

For orientation: bioavailability means the share of a dose that reaches the circulation, judged against a reference dose that is usually intravenous. Read a low bioavailability as poor availability. By clearance is commonly meant the rate of elimination divided by the concentration. Low readings indicate inefficient removal, high ones efficient removal. By half-life is commonly meant the time needed for the level to fall by half in the phase considered.

In the case of `CCCCCCNC(=O)Nc1ccc(S(=O)(=O)Nc2ccc(CCNC[C@H](O)COc3ccc(O)cc3)cc2)cc1` [L-755507], the bioavailability in data set [1] was < 1%.
Consider `O=S(=O)(Nc1ccc(CCNC[C@H](O)COc2ccc(O)cc2)cc1)c1ccccc1`, for which, in data set [2], the clearance is > 200 mL/min/kg. For the same molecule, the half-life in data set [3] was found to be 25 min.
In data set [1], `O=S(=O)(Nc1ccc(CCNC[C@H](O)COc2ccc(O)cc2)cc1)c1cnc2ccccc2c1` returned a bioavailability of 3%.
